The structures appear in SMILES notation.

The subject of this assay is Endogenous Huntingtin Protein (HTT). Nature of the assay: Endogenous Huntingtin Protein Assay (ELISA-based MSD electrochemiluminescence). It counts as cell-based. As to conditions: Table 1. The protocol: Compounds of Formula (I) were tested using the Meso Scale Discovery (MSD) Assay provided in International Application No. PCT/US2016/066042, filed on Dec. 11, 2016 and claiming priority to U.S. Provisional Application 62/265,652 filed on Dec. 10, 2015, published as International Publication No. WO 2017/100726 on Jun. 15, 2017, the entire contents of which are incorporated herein by reference.
The Endogenous Huntingtin Protein assay used in Example 1 was developed using the ELISA-based MSD electrochemiluminescence assay platform.
Endogenous Huntingtin Protein Assay
Meso Scale Discovery (MSD) 96-well or 384-well plates were coated overnight at 4° C. with MW1 (expanded polyglutamine) or MAB2166 monoclonal antibody (for capture) at a concentration of 1 μg/mL in PBS (30 μL per well). Plates were then washed three times with 300 µL wash buffer (0.05% Tween-20 in PBS) and blocked (100 μL blocking buffer; 5% BSA in PBS) for 4-5 hours at room temperature with rotational shaking and then washed three times with wash buffer.
Samples (25 μL) were transferred to the antibody-coated MSD plate and incubated overnight at 4° C. After removal of the lysates, the plate was washed three times with wash buffer, and 25 μL of #5656S (Cell signaling; rabbit monoclonal) secondary antibody (diluted to 0.25 μg/mL in 0.05% Tween-20 in blocking buffer) was added to each well and incubated with shaking for 1 Hour at room temperature. Following incubation with the secondary antibody, the wells were rinsed with wash buffer after which 25 μL of goat anti-rabbit SULFO TAG secondary detection antibody (required aspect of the MSD system) (diluted to 0.25 μg/mL in 0.05% Tween-20 in blocking buffer) was added to each well and incubated with shaking for 1 hour at room temperature. After rinsing three times with wash buffer, 150 μL of read buffer T with surfactant (MSD) were added to each empty well, and the plate was imaged on a SI 6000 imager (MSD) according to manufacturers' instructions provided for 96- or 384-well plates.
One may read the IC50 as the midpoint of a concentration-inhibition curve. `COc1cnc(-c2cc(=O)n3cc(N4CCNCC4)ccc3n2)cc1OC` [compound 199, 2-(4,5-dimethoxypyridin-2-yl)-7-(piperazin-1-yl)-4H-pyrido[1,2-a]pyrimidin-4-one] had a concentration for half-maximal inhibition (IC50) of 3 to 33 µM. With `Cc1cn2cc(-c3cc(=O)n4cc(N5CCNCC5)ccc4n3)cc(F)c2n1` [compound 209, 2-(8-fluoro-2-methylimidazo[1,2-a]pyridin-6-yl)-7-(piperazin-1-yl)-4H-pyrido[1,2-a]pyrimidin-4-one], the IC50 was in the range of 0.1 to 0.5 µM. As for `Cc1nc2ccc(-c3cc(=O)n4cc(N5CCNCC5)ccc4n3)cc2s1` [compound 219, 2-(2-methyl-1,3-benzothiazol-6-yl)-7-(piperazin-1-yl)-4H-pyrido[1,2-a]pyrimidin-4-one], the figure is 3 to 33 µM.

Compound `O=c1cc(-c2cccnc2)nc2ccc(N3CCNCC3)cn12` [compound 228, 7-(piperazin-1-yl)-2-(pyridin-3-yl)-4H-pyrido[1,2-a]pyrimidin-4-one] showed a 50% inhibitory concentration (IC50) of 3 to 33 µM. On to `COc1cncc(-c2cc(=O)n3cc(N4CCNCC4)ccc3n2)c1` [compound 229, 2-(5-methoxypyridin-3-yl)-7-(piperazin-1-yl)-4H-pyrido[1,2-a]pyrimidin-4-one], for which the IC50 lay in the range of 3 to 33 µM. With `Cc1cn2nc(-c3cc(=O)n4cc(N5CCN(C)[C@@H](C)C5)ccc4n3)cc2c(C)n1` [compound 258, 7-[(3S)-3,4-dimethylpiperazin-1-yl]-2-(4,6-dimethylpyrazolo[1,5-a]pyrazin-2-yl)-4H-pyrido[1,2-a]pyrimidin-4-one], the IC50 was 3 to 33 µM. In the case of `Cc1cn2nc(-c3cc(=O)n4cc(N5C[C@@H](C)N(C)[C@@H](C)C5)ccc4n3)cc2c(C)n1` [compound 259, 2-(4,6-dimethylpyrazolo[1,5-a]pyrazin-2-yl)-7-[(3R,5S)-3,4,5-trimethylpiperazin-1-yl]-4H-pyrido[1,2-a]pyrimidin-4-one] it was 3 to 33 µM.

As to `COc1ccc(-c2cc(=O)n3cc(N4CCC(N(C)C)CC4)cc(C)c3n2)cc1OC` [compound 261, 2-(3,4-dimethoxyphenyl)-7-[4-(dimethylamino)piperidin-1-yl]-9-methyl-4H-pyrido[1,2-a]pyrimidin-4-one], the IC50 lay within 3 to 33 µM. `Cc1cn2cc(-c3ccc4nc(N5CCNCC5)cc(=O)n4c3)cc(F)c2n1` [compound 268, 7-(8-fluoro-2-methylimidazo[1,2-a]pyridin-6-yl)-2-(piperazin-1-yl)-4H-pyrido[1,2-a]pyrimidin-4-one] returned an IC50 of 3 to 33 µM. In turn, `Cc1cn2cc(-c3cc(=O)n4cc(N5CCN(C)CC5)ccc4n3)cc(F)c2n1` [compound 269, 2-(8-fluoro-2-methylimidazo[1,2-a]pyridin-6-yl)-7-(4-methylpiperazin-1-yl)-4H-pyrido[1,2-a]pyrimidin-4-one] came in with a half-inhibitory concentration (IC50) of 0.5 to 1 µM. As for `Cc1cn2cc(-c3cc(=O)n4cc(N5CCN6CCC[C@H]6C5)ccc4n3)cc(F)c2n1` [compound 271, 2-(8-fluoro-2-methylimidazo[1,2-a]pyridin-6-yl)-7-[(8aS)-hexahydropyrrolo[1,2-a]pyrazin-2(1H)-yl]-4H-pyrido[1,2-a]pyrimidin-4-one], the figure is 1 to 3 µM. `Cc1cn2cc(-c3cc(=O)n4cc(N5CCN6CCC[C@@H]6C5)ccc4n3)cc(F)c2n1` [compound 272, 2-(8-fluoro-2-methylimidazo[1,2-a]pyridin-6-yl)-7-[(8aR)-hexahydropyrrolo[1,2-a]pyrazin-2(1H)-yl]-4H-pyrido[1,2-a]pyrimidin-4-one] showed an IC50 of 0.5 to 1 µM. As to `Cc1cn2cc(-c3cc(=O)n4cc(N5CCNCC5)ccc4n3)cc(Cl)c2n1` [compound 287, 2-(8-chloro-2-methylimidazo[1,2-a]pyridin-6-yl)-7-(piperazin-1-yl)-4H-pyrido[1,2-a]pyrimidin-4-one], the IC50 was in the range of 0.1 to 0.5 µM. As to `Cc1nc2ccc(-c3cc(=O)n4cc(C5=CCNCC5)ccc4n3)cc2o1` [compound 302, 2-(2-methyl-1,3-benzoxazol-6-yl)-7-(1,2,3,6-tetrahydropyridin-4-yl)-4H-pyrido[1,2-a]pyrimidin-4-one], the IC50 lay in the range of 0.1 to 0.5 µM.

The compound `Cc1nc2c(F)cc(-c3cc(=O)n4cc(N5CCNCC5)ccc4n3)cc2o1` [compound 305, 2-(4-fluoro-2-methyl-1,3-benzoxazol-6-yl)-7-(piperazin-1-yl)-4H-pyrido[1,2-a]pyrimidin-4-one] registered an IC50 of 0.1 to 0.5 µM. The compound `Cc1nc2c(F)cc(-c3cc(=O)n4cc(N5CCN[C@@H](C)C5)ccc4n3)cc2o1` [compound 306, 2-(4-fluoro-2-methyl-1,3-benzoxazol-6-yl)-7-[(3S)-3-methylpiperazin-1-yl]-4H-pyrido[1,2-a]pyrimidin-4-one] gave an IC50 of 0.1 to 0.5 µM.

The compound `Cc1nc2c(F)cc(-c3cc(=O)n4cc(N5CCN(C)CC5)ccc4n3)cc2o1` [compound 308, 2-(4-fluoro-2-methyl-1,3-benzoxazol-6-yl)-7-(4-methylpiperazin-1-yl)-4H-pyrido[1,2-a]pyrimidin-4-one] had an IC50 of 0.5 to 1 µM. As for `CCN1CCN(c2ccc3nc(-c4cc(F)c5nc(C)oc5c4)cc(=O)n3c2)CC1` [compound 309, 7-(4-ethylpiperazin-1-yl)-2-(4-fluoro-2-methyl-1,3-benzoxazol-6-yl)-4H-pyrido[1,2-a]pyrimidin-4-one], the figure is 1 to 3 µM; as for `CCN1CC=C(c2ccc3nc(-c4cc(F)c5nc(C)oc5c4)cc(=O)n3c2)CC1` [compound 318, 7-(1-ethyl-1,2,3,6-tetrahydropyridin-4-yl)-2-(4-fluoro-2-methyl-1,3-benzoxazol-6-yl)-4H-pyrido[1,2-a]pyrimidin-4-one], 1 to 3 µM.

For the compound `Cc1cn2nc(-c3cc(=O)n4cc(N5CCN6CCC[C@H]6C5)ccc4n3)cc2c(C)n1` [compound 336, 2-(4,6-dimethylpyrazolo[1,5-a]pyrazin-2-yl)-7-[(8aS)-hexahydropyrrolo[1,2-a]pyrazin-2(1H)-yl]-4H-pyrido[1,2-a]pyrimidin-4-one], the half-inhibitory concentration (IC50) was in the range of 3 to 33 µM. In the case of `Cc1cn2nc(-c3cc(=O)n4cc(N5CCN6CCC[C@@H]6C5)ccc4n3)cc2c(C)n1` [compound 337, 2-(4,6-dimethylpyrazolo[1,5-a]pyrazin-2-yl)-7-[(8aR)-hexahydropyrrolo[1,2-a]pyrazin-2(1H)-yl]-4H-pyrido[1,2-a]pyrimidin-4-one] it was 3 to 33 µM; in that of `Cc1cn2nc(-c3cc(=O)n4cc(C5=CCN(C)CC5)ccc4n3)cc2c(C)n1` [compound 350, 2-(4,6-dimethylpyrazolo[1,5-a]pyrazin-2-yl)-7-(1-methyl-1,2,3,6-tetrahydropyridin-4-yl)-4H-pyrido[1,2-a]pyrimidin-4-one], 3 to 33 µM; in that of `CCN1CC=C(c2ccc3nc(-c4cc5c(C)nc(C)cn5n4)cc(=O)n3c2)CC1` [compound 351, 2-(4,6-dimethylpyrazolo[1,5-a]pyrazin-2-yl)-7-(1-ethyl-1,2,3,6-tetrahydropyridin-4-yl)-4H-pyrido[1,2-a]pyrimidin-4-one], 3 to 33 µM. Compound `Cc1cn2nc(-c3cc(=O)n4cc(C5=CCN(C6CCC6)CC5)ccc4n3)cc2c(C)n1` [compound 356, 7-(1-cyclobutyl-1,2,3,6-tetrahydropyridin-4-yl)-2-(4,6-dimethylpyrazolo[1,5-a]pyrazin-2-yl)-4H-pyrido[1,2-a]pyrimidin-4-one] gave an IC50 of 3 to 33 µM. As for `Cc1cn2nc(-c3cc(=O)n4cc(N5C[C@@H]6C[C@H]5CN6C)ccc4n3)cc2c(C)n1` [compound 400, 2-(4,6-dimethylpyrazolo[1,5-a]pyrazin-2-yl)-7-[(1S,4S)-5-methyl-2,5-diazabicyclo[2.2.1]hept-2-yl]-4H-pyrido[1,2-a]pyrimidin-4-one], the figure is 3 to 33 µM; as for `CCN1C[C@@H]2C[C@H]1CN2c1ccc2nc(-c3cc4c(C)nc(C)cn4n3)cc(=O)n2c1` [compound 401, 2-(4,6-dimethylpyrazolo[1,5-a]pyrazin-2-yl)-7-[(1S,4S)-5-ethyl-2,5-diazabicyclo[2.2.1]hept-2-yl]-4H-pyrido[1,2-a]pyrimidin-4-one], 3 to 33 µM. In the case of `Cc1cn2cc(-c3ccc4nc(C5CCNCC5)cc(=O)n4c3)ccc2n1` [compound 409, 7-(2-methylimidazo[1,2-a]pyridin-6-yl)-2-(piperidin-4-yl)-4H-pyrido[1,2-a]pyrimidin-4-one] it was 1 to 3 µM; in that of `Cc1cn2cc(-c3ccc4nc(C5CCNCC5)cc(=O)n4c3)cc(F)c2n1` [compound 410, 7-(8-fluoro-2-methylimidazo[1,2-a]pyridin-6-yl)-2-(piperidin-4-yl)-4H-pyrido[1,2-a]pyrimidin-4-one], 0.5 to 1 µM; in that of `Cc1cn2cc(-c3cc(=O)n4cc(N5CCN(C6CC6)CC5)ccc4n3)cc(F)c2n1` [compound 412, 7-(4-cyclopropylpiperazin-1-yl)-2-(8-fluoro-2-methylimidazo[1,2-a]pyridin-6-yl)-4H-pyrido[1,2-a]pyrimidin-4-one], 3 to 33 µM.

For the origin of these results see patent publication US11382918B2, “Methods for treating Huntington's Disease” (PTC Therapeutics, Inc., priority 2017, dated 2022).
